The values below come from PubChem BioAssay AID602279 (Broad Institute, 2012).

The test system of experiment [1] is S. cerevisiae alpha-synuclein toxicity rescue, OD600 growth, 24 h. Briefly: yeast growth restoration under alpha-synuclein stress, dose response, S. cerevisiae, OD600, dry powder (AID 602279).
Assay in experiment [2]: as above
The note with it: S. cerevisiae alpha-synuclein toxicity rescue, OD600 growth, 24 h; at 26 µM (top of the series).

Calls of active or inactive are those of the source.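 Rule for the calls: active = fitted curve reaches 40% growth rescue activation at or below the top valid tested concentration; inconclusive = flat fit between 30 and 70%, or poor fit quality; inactive = activity opposite to the expected rise, and the rest.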

`Fc1cc(NCc2ccccc2)nc(NCc2ccccc2)n1`: the AC40 in experiment [1] is > 26 µM (inactive).
With `Cc1ccccc1CSc1nsc(N)n1`, in experiment [1], the AC40 was > 26 µM (inactive).
With `O=c1c2ccccc2[nH]c(=S)n1CCC1=CCCCC1`, the growth rescue activation in experiment [2] is 18.9% (inactive).
As for `CC(C)c1ccc(C2NC(=O)c3ccccc3O2)cc1` (centres undefined), the AC40 in experiment [1] was > 26 µM (inactive).
